Experimental data reported in PMC5349917, “Octreotide-periplocymarin conjugate prodrug for improving targetability and anti-tumor efficiency: synthesis, in vitro and in vivo evaluation” (Oncotarget, 2016).
Values joined by “and” are separate entries in the source; they are usually repeats but may differ in a detail not shown here. Equal values may be shown once. Read-outs that look alike come from different tables or passages of the source.

What was measured:
[1] = tested on: H22 tumor; test: Anti-tumor efficacy in H22 tumor-bearing mice; assay type: in vivo, mouse; settings: H22 tumor Kunming mice, 5 times; for final tumor weight: control 0.876 ± 0.154 g
Method: (§1) Treatment was initiated when the tumor diameter reached about 0.5 cm (around 3 days). Mice were randomly assigned to four groups (n = 6) namely the control, PPM, OCT and OCT(Phe)-S-PPM groups. Treatment were administered via tail vein at a dose of 4 mg/kg every other day during the experimental period for 5 times. The control group received corresponding amounts of blank injection (ethanol/Cremophor EL, v/v, 1/1, diluted 20 times with normal saline before the injection). Their weights were measured daily and tumor size was measured (major and minor axis) with a vernier caliper thereafter and at the end of the experiment. Tumor volumes were calculated using the formula: a^2×b×0.52, where a and b refer to the longest and shortest diameter, respectively. Tumor tissues were removed from the sacrificed mice and weighed to calculate the tumor inhibition rate (TIR (%) = (1-Wt/Wc) × 100%, where Wt and Wc are the mean tumor weights of the treated groups and the negative control group, respectively. Moreover, the heart, liver and tumor were rinsed with normal saline, fixed in 10% formalin, and then embedded in paraffin blocks for later slicing and staining with hematoxylin and eosin (H&E). Finally, the sections were observed under a microscope for histopathological evaluations

[2] = Toxicity in H22 tumor-bearing mice (serum AST, ALT, ALP, body weight, heart and liver histopathology); assay type: in vivo, mouse; settings: for pathological images of heart sections / pathological images of liver sections: HE staining, after treatment for ten days; for ALT / AST / ALP: serum, mice sacrificed 24 h after the last administration; for ALT: control 26.86 ± 6.44; for AST: control 50.55 ± 8.82; for ALP: control 112.06 ± 14.29
Method: as §1

[3] = Tissue distribution in H22 cell tumor bearing mice; assay type: in vivo, mouse; settings: for AUC0–t Heart / AUC0–t Kidney / AUC0–t Liver / AUC0–t Lung / AUC0–t Plasma / AUC0–t Spleen / AUC0–t Tumor: level of PPM, 4 mg/kg (PPM or equivalent), H22 tumor-bearing mice, 0-4 h
Method: Male Kunming strain mice (KM, 18–22 g) were purchased from Qinglongshan, Experimental Animal Center (ZhenJiang, China). Animal experiments were conducted under principles of good laboratory animal care, and approved by the Ethical Committee for Laboratory Animals Care and Use of Jiangsu University. Mouse […] (H22) cells were purchased from the Cell Bank of Academy of Science (Shanghai, China).
Approximately 1 × 10^7 H22 cells suspended in PBS (pH 7.4) were inoculated subcutaneously into the right hind leg. When the tumor volume reached 1000 mm^3 (around 7 days), mice were intravenously injected with PPM (at a dose of 4 mg/kg) or its equivalent OCT(Phe)-S-PPM via the tail vein (n = 5). At indicated time periods (0.16, 0.50, 1, 2, 3 and 4 h) after injection, blood samples were collected and mice were then sacrificed by cervical dislocation to obtain the heart, liver, spleen, lung, kidney and tumor tissues. All the samples were then washed with ice-cold saline to remove the excess fluid, weighed and stored at –20°C. The thawed tissue was homogenized in 0.9% sodium chloride solution to obtain 0.2 g/mL tissues homogenate. This was followed by the addition of bufalin (50 μl, 5 μg/ml) to the tissues (0.2 ml) with uniform mixing. Ethyl acetate (1.2 ml) was then added to the resulting mixture and thoroughly mixed for 5 min. The total supernatant or organic layer was separated by centrifugation at 3000 rpm for 10 min and transferred to a clean tube. The supernatant was dried with nitrogen at 40°C on water bath to obtain the residue, which was later reconstituted in a 0.2 mL of mobile phase solution. After centrifugation at 20,000 rpm for 10 min, the supernatant was analyzed by HPLC. The mobile phase consisted of acetonitrile and water (38:62, v/v, pH = 3.0, adjusted by H3PO4). The flow rate was 1.0 mL·min^-1 and the detection wavelength was 220 nm. Other conditions included injection volume (20 μl), column temperature (25°C) and detection sensitivity (0.02 AUFS). The retention time of PPM and Bufalin was about 7.2 and 10.8 min, respectively. The calibration curve was A = 0.9958C-0.0299 (A represented the peak area ratio of PPM and Bufalin, while C was the concentration of PPM) and was linear in the range of 0.05–10 μg/mL with a correlation coefficient of R = 0.9995.

[4] = tested on: HepG2 hepatoma cells; test: MTT growth inhibition assay, HepG2 cells; assay type: cell-based, human
Method: (§2) To test the antitumor activities of the synthesized compounds, we evaluated antiproliferative activities of these compounds against human cancer cell lines (Breast cancer cells, MCF-7; Hepatoma cells, HepG2) and human normal cell line (Liver cells, L-02), using the MTT assay as reported in previous studies. Both cell lines were obtained from the Cell Bank of Academy of Science (Shanghai, China).
(§3) After incubation, 20 μL of MTT (5 mg/mL in pH 7.4 PBS) was added to each well, and the plates further incubated at 37°C for 4 h. The medium was then replaced with 100 μL DMSO. The optical density was measured by Microplate Reader (Thermo Electron Corporation) at 595 nm.
(§4) Statistical significance of differences between treatment groups in the biodistribution and anti-tumor effect were assessed using an unpaired Student’s t-test. A p-value of less than 0.05 was considered significant.

[5] = cited from earlier work
[6] = tested on: L-02 cells; test: cells; assay type: cell-based, human
Method: as §2
(§5) In brief, the cells were seeded into a 96-well plate at a density of 2.5 × 10^4 cells/well and incubated with OCT modified PPMs containing various concentrations (ranging from 0.001 to 50.0 μM) for 72 h. After incubation, 20 μL of MTT (5 mg/mL in pH 7.4 PBS) was added to each well, and the plates further incubated at 37°C for 4 h. The medium was then replaced with 100 μL DMSO. The optical density was measured by Microplate Reader (Thermo Electron Corporation) at 595 nm. The cell inhibition rate (IR) was calculated as follows: IR (%) = 1−A/A1×100%, where A refers to the average absorbance intensity of treated group and A1 refers to average absorbance intensity of untreated control group (the vehicle control group).
as §4, with “significant. 50% inhibiting concentration (IC50) of the sample was calculated with the aid of Curve-Expert software (version 1.3; Daniel G. Hyams, Hixson, TN, USA).” for “significant.”

[7] = tested on: MCF-7 breast cancer cells; test: MTT growth inhibition assay, MCF-7 cells; assay type: cell-based, human
Method: as §2, §3, §4

[8] = tested on: PC3, U937, HCT-8, Bel-7402, BGC823, A549 and A2780 cell lines; design: method as in PMID 17366373; settings: PC3, U937, HCT-8, Bel-7402, BGC823, A549 and A2780 cell lines in vitro; read-out: IC50 values, inhibition of proliferation; cited from earlier work
[9] = tested on: MFC murine gastric carcinoma cells; test: In vitro cytotoxicity on MFC cells; assay type: cell-based, mouse; settings: 72 h of incubation
Method: as §5
as §4, with “significant. 50% inhibiting concentration (IC50) of the sample was calculated with the aid of Curve-Expert software (version 1.3; Daniel G. Hyams, Hixson, TN, USA).” for “significant.”

[10] = MTT, 72 h of incubation, read-out: IC50 MCF-7

| Compound | final tumor weight ([1]; 4 mg/kg i.v. every other day) [g] | pathological images of heart sections [2] | pathological images of liver sections [2] | ALT [2] [U/L] | AST [2] [U/L] | ALP [2] [U/L] | AUC0–t Heart ([3]; i.v.) [µg·h/g] | AUC0–t Kidney ([3]; i.v.) [µg·h/g] | AUC0–t Liver ([3]; i.v.) [µg·h/g] | AUC0–t Lung ([3]; i.v.) [µg·h/g] | AUC0–t Plasma ([3]; i.v.) [µg·h/g] | AUC0–t Spleen ([3]; i.v.) [µg·h/g] | AUC0–t Tumor ([3]; i.v., 4 mg/kg) | IC50 [7, 10] [nM] | also measured |
| --- | --- | --- | --- | --- | --- | --- | --- | --- | --- | --- | --- | --- | --- | --- | --- |
| CO[C@H]1C[C@H](O[C@H]2CC[C@]3(C)[C@H]4CC[C@]5(C)[C@@H](C6=CC(=O)OC6)CC[C@]5(O)[C@@H]4CC[C@]3(O)C2)O[C@H](C)[C@H]1OC(=O)CCC(=O)N[C@H](Cc1ccccc1)C(=O)N[C@H]1CSSC[C@@H](C(=O)N[C@H](CO)[C@@H](C)O)NC(=O)[C@H]([C@@H](C)O)NC(=O)[C@H](CCCCN)NC(=O)[C@@H](Cc2c[nH]c3ccccc23)NC(=O)[C@H](Cc2ccccc2)NC1=O [OCT(Phe)-S-PPM] | 0.287 ± 0.069 | no evident differences from the control group | no evident differences from the control group | 23.25 ±5.76 | 56.83 ± 7.34 | 124.90 ± 27.23 | 1.315 ± 0.239 | 1.152 ± 0.132 | 1.441 ± 0.202 | 0.839 ± 0.083 | 1.409 ± 0.196 | 0.632 ± 0.079 | 1.338 µg·h/g and 1.338 ± 0.195 µg·h/g | – | reduction of tumor volume compared to PPM (average) ([1]; equimolar dose of PPM 4 mg/kg, i.v. every other day): 1.56 fold; concentration in tumor tissue ([3]; 15 min post injection, i.v.): 0.168 µg/g; maximum concentration in tumor tissue ([3]; i.v., reached at 1 h): 0.618 µg/g; AUC0–t in plasma, fold higher than that of PPM ([3]; i.v., vs PPM): 1.73 fold; AUC0–t in tumor, fold higher than that of PPM ([3]; i.v., vs PPM): 2.17 fold; total AUC0~t of heart, fold lower than that of PPM ([3]; i.v., vs PPM, P < 0.01): 0.77 fold; total AUC0~t of liver, fold lower than that of PPM ([3]; i.v., vs PPM, P < 0.01): 0.73 fold; enhancement of cytotoxicity of PPM when conjugated with Phe-OCT ([4]; HepG2, vs PPM): 1.88 fold |
| C[C@@H](O)[C@@H]1NC(=O)[C@H](CCCCN)NC(=O)[C@@H](Cc2c[nH]c3ccccc23)NC(=O)[C@H](Cc2ccccc2)NC(=O)[C@@H](NC(=O)[C@H](N)Cc2ccccc2)CSSC[C@@H](C(=O)N[C@H](CO)[C@@H](C)O)NC1=O [OCT, Octreotide] | 0.765 ± 0.126 | – | – | 34.48 ± 6.28 | 51.25 ± 5.2 | 129.48 ± 18.54 | – | – | – | – | – | – | – | – | plasma half-life, times more than endogenous somatostatin [5]: 30 times; IC50 ([6]; 72 h): > 50000 nM; IC50 ([7]; 72 h): > 50000 nM; IC50 ([4]; 72 h): > 50000 nM |
| CO[C@H]1C[C@H](O[C@H]2CC[C@]3(C)[C@H]4CC[C@]5(C)[C@@H](C6=CC(=O)OC6)CC[C@]5(O)[C@@H]4CC[C@]3(O)C2)O[C@H](C)[C@H]1O [PPM, periplocymarin] | 0.423 ± 0.087 | irregularly arranged myocardial cells and slightly lymphocyte infiltration in the interstitial tissue of the myocardium | obvious soma shrinking, dissociation of hepatic cord, dilation of hepatic sinusoids and lymphocytosis | 62.43 ± 13.52 | 68.21 ± 8.95 | 184.23 ± 21.48 | 1.692 ± 0.283 | 1.773 ± 0.393 | 1.967 ± 0.321 | 0.457 ± 0.092 | 0.812 ± 0.143 | 0.257 ± 0.086 | 0.614 µg·h/g and 0.614 ± 0.128 µg·h/g | 35.9 | IC50 ([6]; Homo sapiens, L02, MTT, 72 h of incubation, read-out: IC50 L-02): 128 nM; IC50 ([7]; Homo sapiens, MCF7, 72 h, MTT, 72 h of incubation, read-out: IC50 MCF-7): 35.9 nM; tumor inhibition rate ([1]; 4 mg/kg i.v. every other day, from tumor weights): 51.71%; average body weight ([2]; during treatment, vs control group, P < 0.01): less than that of the control group; Kp at 15 min ([3]; male, Kunming, mouse, heart / blood, iv, 15 min post injection, i.v. 4 mg/kg, read-out: ratio of the PPM concentration in heart and blood): 1.18; Kp at 1 h ([3]; male, Kunming, mouse, heart / blood, iv, 1 h post injection, i.v. 4 mg/kg, read-out: ratio of the PPM concentration in heart and blood): 5.21; concentration at 15 min ([3]; male, Kunming, mouse, tumor, iv, 4 mg/kg, 15 min post injection): 917 ng/g; IC50 ([4]; Homo sapiens, HepG2, MTT, 72 h of incubation, read-out: IC50 HepG2): 138 nM; IC50 [8]: 20 to 290 nM; IC50 ([9]; Mus musculus): 38.4 nM |
| C[C@]12CC[C@H](O)C[C@@]1(O)CC[C@@H]1[C@@H]2CC[C@]2(C)[C@@H](C3=CC(=O)OC3)CC[C@]12O [periplogenin] | – | – | – | – | – | – | – | – | – | – | – | – | – | 902 | IC50 ([6]; MTT, 72 h of incubation, read-out: IC50 L-02): 406 nM; IC50 ([4]; MTT, 72 h of incubation, read-out: IC50 HepG2): 580 nM; IC50 [9]: 509 nM |
| Somatostatin [somatostatins] | – | – | – | – | – | – | – | – | – | – | – | – | – | – | half-life in circulation ([5]; in vivo): 1 to 3 min |
